Measured values as given in patent US8501811B2, “TASPASE1 inhibitors and their uses” (Washington University, priority 2010, dated 2013).
“Also recorded” adds a separate entry of the source. One block for each molecule: values may come before it. Residues, ends and D or L forms follow the SMILES beside them. *: point of attachment. DNP = 2,4-dinitrophenyl quenching group; X1 = CS(=O)(=O)/C=C/[C@H](CC(=O)O)N*; MCA = fluorogenic coumarin group

Legend:
[1] = molecular target: T1, Taspase1 (Homo sapiens, UniProt Q9H6P5); experiment: FRET-based Taspase1 proteolytic reporter (FRPR) assay; assay type: biochemical; conditions: for EC50: Maybridge library screen, dose-response
T1 sequence (Q9H6P5 1-233 limits assumed): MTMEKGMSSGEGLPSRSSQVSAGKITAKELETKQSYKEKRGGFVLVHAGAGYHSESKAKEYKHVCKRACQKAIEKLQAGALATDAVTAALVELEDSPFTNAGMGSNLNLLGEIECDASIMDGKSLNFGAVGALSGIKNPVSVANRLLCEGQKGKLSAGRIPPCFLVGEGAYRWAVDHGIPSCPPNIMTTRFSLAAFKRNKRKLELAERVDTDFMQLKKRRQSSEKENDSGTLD

[2] = molecular target: T2, recombinant Taspase1 (rTaspase1) (Homo sapiens, UniProt Q9H6P5); experiment: Taspase1-MLL in vitro cleavage assay (IVTT 35S methionine labeled p75MLL reporter, SDS-PAGE, autoradiography); assay type: biochemical; conditions: for Inhibition of Taspase1-mediated p75MLL cleavage at 1 mM: 1 mM (up to 1 mM); for Inhibition of Taspase1-mediated p75MLL cleavage (in words): indicated concentrations, 30 minutes pretreatment; for Effect of increasing pretreatment time on Taspase1 inhibition: 5 μM, pre-incubation for increasing periods of time; for IC50: rTaspase1 pretreated 30 minutes at room temperature, then p75MLL reporter 30 minutes at 30° C., read-out: IC50 of Taspase1 inhibition (p75MLL cleavage)
T2 sequence (Q9H6P5 1-233 limits assumed): T1 sequence (Q9H6P5 1-233 limits assumed)

[3] = molecular target: Recombinant Caspase8 (rCaspase8) (Homo sapiens, UniProt Q14790); experiment: Caspase8-BID in vitro cleavage assay (IVTT 35S methionine labeled p22Bid reporter); assay type: biochemical; conditions: 1 mM, tertiary screen
Chain of Recombinant Caspase8 (rCaspase8) (Q14790 217-374 limits assumed, species assumed): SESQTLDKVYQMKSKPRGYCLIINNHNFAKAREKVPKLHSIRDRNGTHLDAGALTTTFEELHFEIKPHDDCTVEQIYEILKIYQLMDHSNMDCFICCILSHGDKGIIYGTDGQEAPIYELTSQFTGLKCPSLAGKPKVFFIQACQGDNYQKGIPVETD

[4] = test system: SV40-transformed mouse embryonic fibroblasts (MEFs); experiment: MTT assay of SV40-transformed MEFs, wild-type versus Taspase1-/-; assay type: cell-based; conditions: 2 days, relative cell number
[5] = molecular target: autotoxin (Homo sapiens, UniProt Q13822); conditions: cited from earlier work
[6] = test system: NCI60 cell lines; conditions: NCI DTP database; cited from earlier work

Molecule: Cc1ccc(-c2nc(NS(=O)(=O)c3cccc4nonc34)sc2C)cc1Cl [HTS 01888]
- EC50 [1]: 2.2 µM

Molecule: O=C(CO/N=C/c1ccc(Cl)cc1Cl)NNCCC(=S)Nc1cc(Cl)ccc1Cl [CD 06082]
- EC50 [1]: 3.3 µM

Molecule: arsenic acid
- Inhibition of Taspase1-mediated p75MLL cleavage at 1 mM [2]: no inhibition

Molecule: Cc1ccc(S(=O)(=O)NC(=O)Nc2nc(-c3ccc(C)c(Cl)c3)c(C)s2)cc1 [HTS 06900]
- EC50 [1]: 4 µM

Molecule: CC[C@H](C)[C@H](NC(=O)[C@H](CCCCN)NC(C)=O)C(=O)N[C@@H](CO)C(=O)N[C@@H](CCC(N)=O)C(=O)N[C@@H](CC(C)C)C(=O)N[C@H](C=O)CC(=O)O [ISQLD-aldehyde] (Ac-KISQLD-aldehyde)
- Inhibition of Taspase1-mediated p75MLL cleavage (in words) [2]: minimal activity

Molecule: Cc1ccc(NC(=S)NNC(=O)Cn2nnc(-c3cccc(Cl)c3Cl)n2)cc1Cl [RJF 02020]
- EC50 [1]: 3.9 µM

Molecule: MCA-KISQLDGVDD-DNP ({MCA}-KISQLDGVDD-{DNP}) [FRPR]
- Km ([1]; rTaspase1 at room temperature, read-out: apparent KM of the reporter substrate): 9.06 ± 2.8 µM

Molecule: O=[As](O)(O)c1ccc(Cc2ccc([As](=O)(O)O)cc2)cc1 [NSC48300, [4-[(4-arsonophenyl)methyl]phenyl]arsonic acid]
- Effect of increasing pretreatment time on Taspase1 inhibition [2]: did not enhance the inhibition
- Effect of increasing pretreatment time on Taspase1 inhibition ([2]; listed as TASPIN-NSC48300): did not exhibit enhanced inhibition
- Inhibition of Taspase1-mediated p75MLL cleavage at 10 μM ([2]; 10 μM): completely inhibited
- Inhibition of Taspase1-mediated p75MLL cleavage at 1 mM [2]: inhibited Taspase1
- IC50 [2]: ~7.5 µM
- Inhibition of Caspase8-mediated p22Bid cleavage [3]: only targets Taspase1; also recorded: not Caspase8
- Ki ([1]; 100 nM rTaspase1, varying concentrations of FRPR, read-out: KI of Taspase1 inhibition): 4.22 ± 0.46 µM
- Mode of Taspase1 inhibition ([1]; varying concentrations of FRPR and inhibitor): non-competitive inhibition
- Susceptibility of wild-type versus Taspase1-/- SV40-transformed MEFs [4]: more susceptible
- Inhibition of autotoxin [5]: inhibit autotoxin
- Growth inhibition in the NCI60 screen [6]: distinct pattern of growth inhibition

Molecule: S=C(NNC(=S)NC1CC2C=CC1C2)Nc1ccc(Br)c(Cl)c1 (centres unmarked) [CD 02506]
- EC50 [1]: 1.5 µM

Continued, values first:

- EC50 [1]: 9.9 µM
Molecule: O=C(NNC(=S)Nc1cccc(C(F)(F)F)c1)c1sc2ccccc2c1Cl [BTB 00807]

- Inhibition of Taspase1-mediated p75MLL cleavage (in words) [2]: no activity
Molecule: CC(C)C[C@H](NC(=O)[C@H](Cc1ccccc1)NC(=O)c1cnccn1)B(O)O [bortezomib]

- IC50 [2]: 29.4 µM
Molecule: CC[C@H](C)[C@H](NC(C)=O)C(=O)N[C@@H](CO)C(=O)N[C@@H](CCC(N)=O)C(=O)N[C@@H](CC(C)C)C(=O)N[C@H](/C=C/S(C)(=O)=O)CC(=O)O [ISQLD-vinyl sulfone] (Ac-ISQL-X1; N-terminus and C-terminus assumed)

- EC50 [1]: 5.9 µM
Molecule: CC(C)(C)c1cc(C(=O)NNC(=S)Nc2ccccc2)n(Cc2ccc(Cl)cc2Cl)n1 [SPB 08132]
